Results on six compounds are retold here after publication PMC3547732 (Chemistry Central Journal, 2012).

Data set [1] relates to Triton induced hyperlipidemia. Nature of the data set: Hypolipidemic activity in Triton induced hyperlipidemia in rats. The data set is classed as in vivo, male Wistar rats. The conditions noted are these: for Total Cholesterol / Triglyceride: Triton treated rats, 30 mg/kg oral gavage 2 h before Triton i.p., plasma 18 h after triton injection; for lipid lowering in triton treated rats (total cholesterol and TG), in words: 30 mg/kg oral gavage. How it is done: The rats were housed under optimal laboratory conditions, maintained on 12 h light and dark cycle and had free access to food (Hindustan Lever Products, Kolkata, India) and water. Animals were acclimatized to laboratory conditions before the tests. All experiments were carried out between 0900 and 1700 h. The experimental protocols were approved by the Institutional Animal Ethics Committee and conducted according to the Indian National Science Academy guidelines for the use and care of animals. Fifty five male Wistar rats were divided into the following 11 groups containing 5 animals in each group: Atrovastain and various solvates were freshly suspended in 0.5% carboxymethyl cellulose and administered by oral gavage. Two hours later, all groups except control animals received intraperitonial injection of Triton (100 mg/kg). Eighteen hours after triton injection, blood was collected from tail vein. Plasma was separated and stored at −20°C for further biochemical analysis. Total cholesterol and triglyceride were analyzed in plasma samples using diagnostic kits as per manufacturer instructions.

Data set [2] in a line: Enthalpy of solution by microreaction calorimetry. It is filed as physicochemical. The following applies: 25°C.
The nature of data set [3]: Desolvation of solvates by DSC and TGA. The data set is classed as physicochemical. The following applies: for Desolvation temperature: DSC desolvation endotherm maximum, 10°C/min; for Enthalpy of desolvation, ΔdesolvH calculated from equation 4: calculated from enthalpies of solution, heat capacities and enthalpy of vapourization; for Enthalpy of desolvation per mole of solvent (binding energy): equation 1 from DSC desolvation enthalpy and TGA mass loss. An excerpt: The desolvation temperatures account for the stability of solvates as the desolvation temperature in all these forms is much higher than the boiling point of the corresponding solvent. The quantitative estimate of the stability of these solvates is established by determining the binding energy for the solvents in all the solvates using equation 1 where the percent mass loss measured over the TG desolvation step of each solvate (ΔmS%) was related to the enthalpy change calculated over the corresponding DSC desolvation endotherm (ΔHSexp).
(1) ΔHS=ΔHSexp×100Δms%×Ms
where ΔHS (J mol^-1) is the enthalpy of desolvation (or binding energy) per mole of the bound solvent, MS is the molecular mass of the solvent.
(4) ΔdesolyH=ΔsolnH^2−ΔsolnH^1−ΔCPTdesoly−25+1/2ΔyapH
. A mass between 2–8 mg was taken into the aluminium pan, covered with lid and sealed. DSC curves were obtained under a nitrogen purge of 50 mL per minute at a heating rate of 10°C per minute with the temperature range from 50-350°C.
Loss of solvent from the samples was characterized by TGA obtained by TA Instruments-Waters LLC, USA. TGA traces were recorded at heating rates of 10°C per minute under a nitrogen purge of 50 ml per minute. Samples with masses between 1–10 mg were analyzed using platinum pan. Mass loss (%) was calculated based on the mass of the original sample.

Data set [4] is described as follows: Enthalpy of solution by microreaction calorimetry. The data set is classed as physicochemical. The following applies: for Enthalpy of solvation ΔsolvH: calculated by equation 3 from enthalpies of solution of drug and solvate in the solvent of solvation; for Molar enthalpy of solution in its own solvent, Solvates (ΔsolH^2): each solvate in its own solvent of solvation; for Molar enthalpy of solution in its own solvent, Solvates (ΔsolH^2) / Molar enthalpy of solution, Methanol ΔsolH (methanol): 25°C. The method, then:
Molar enthalpy of solution (ΔHsol) was determined in phosphate buffer (pH8) as well as in methanol.
In order to determine the enthalpy associated with the solvation process the enthalpy of solution of a particular solvate was determined in its own solvent.
(3) ΔsolyH=ΔsolH^1−ΔsolH^2
Calorimetric studies were performed on Microreaction calorimeter obtained from Thermal Hazards Technology, UK. Two different solvents, viz, the phosphate buffer (pH 2) and methanol were used to determine the enthalpy of solution and the measurements were performed at 25°C. The size of sample used in this study ranged from 10 to 20 mg and was weighed (Sartorius Model CP225D) into a cylindrical glass tube covered with parafilm on one side. This cylindrical tube was submerged into the ampoule containing the solvent. A plunger with a cap was put from the open end of the tube. The same solvent was put into the reference ampoule. These were put into the sample and reference holes until both rest on the base of the holes. The apparatus was maintained at constant temperature at 25°C (±0.0005°C). The parafilm was shattered mechanically by means of plunger.

As to `CC(C)(C)O.CC(C)c1c(C(=O)Nc2ccccc2)c(-c2ccccc2)c(-c2ccc(F)cc2)n1CC[C@@H](O)C[C@@H](O)CC(=O)[O-].CC(C)c1c(C(=O)Nc2ccccc2)c(-c2ccccc2)c(-c2ccc(F)cc2)n1CC[C@@H](O)C[C@@H](O)CC(=O)[O-].CC(C)c1c(C(=O)Nc2ccccc2)c(-c2ccccc2)c(-c2ccc(F)cc2)n1CC[C@@H](O)C[C@@H](O)CC(=O)[O-].CC(C)c1c(C(=O)Nc2ccccc2)c(-c2ccccc2)c(-c2ccc(F)cc2)n1CC[C@@H](O)C[C@@H](O)CC(=O)[O-].[Ca+2].[Ca+2]` [Solvate IV], in data set [1], the “Total Cholesterol” value turned out to be 204 mg/dL and the Triglyceride came to 168 mg/dL. Moreover, the “Molar enthalpy of solution, Phosphate buffer (pH8) ΔsolH” value (from here on “Molar enthalpy … (pH8) ΔsolH”) in data set [2] was found to be 11.50 kJ mol^-1. Moreover, the Desolvation temperature in data set [3] (listed as IV) is 90(±8) °C. In addition, the Desolvation temperature in data set [3] (listed as Solvate- IV) was 83. 34 °C. In data set [3], the “Enthalpy of desolvation, ΔdesolvH calculated from equation 4” value is 18.72 kcal/mol; the “Enthalpy of desolvation per mole of solvent (binding energy)” value is 32.655 kcal/mol; the “Enthalpy of desolvation, ΔdesolvH from DSC” value (“Enthalpy … ΔdesolvH from DSC” for short) turned out to be 18.85 kcal/mol. In data set [4], the “Enthalpy of solvation ΔsolvH” value is -7.574 kcal/mol; the “Molar enthalpy of solution in its own solvent, Solvates (ΔsolH^2)” value (“Molar enthalpy of solution … (ΔsolH^2)” below) was determined as 0.755 kcal/mol; the “Molar enthalpy of solution, Methanol ΔsolH (methanol)” value is 1.3 kcal/mol.

For `CC(C)O.CC(C)c1c(C(=O)Nc2ccccc2)c(-c2ccccc2)c(-c2ccc(F)cc2)n1CC[C@@H](O)C[C@@H](O)CC(=O)[O-].CC(C)c1c(C(=O)Nc2ccccc2)c(-c2ccccc2)c(-c2ccc(F)cc2)n1CC[C@@H](O)C[C@@H](O)CC(=O)[O-].CC(C)c1c(C(=O)Nc2ccccc2)c(-c2ccccc2)c(-c2ccc(F)cc2)n1CC[C@@H](O)C[C@@H](O)CC(=O)[O-].CC(C)c1c(C(=O)Nc2ccccc2)c(-c2ccccc2)c(-c2ccc(F)cc2)n1CC[C@@H](O)C[C@@H](O)CC(=O)[O-].[Ca+2].[Ca+2]` [Solvate I], in data set [1], the “lipid lowering in triton treated rats (total cholesterol and TG), in words” value is “performed better than pure ATC”; the “Total Cholesterol” value was 161 mg/dL; the Triglyceride worked out at 143 mg/dL. Also, in data set [2], the “Molar enthalpy … (pH8) ΔsolH” value is 2.51 kJ mol^-1. In data set [3], the Desolvation temperature is 84.71 °C; the “Enthalpy of desolvation, ΔdesolvH calculated from equation 4” value was 6.197 kcal/mol; the “Enthalpy of desolvation per mole of solvent (binding energy)” value is 33.798 kcal/mol; the “Enthalpy … ΔdesolvH from DSC” value turned out to be 5.784 kcal/mol. Besides, in data set [4], the “Enthalpy of solvation ΔsolvH” value was -2.612 kcal/mol; the “Molar enthalpy of solution … (ΔsolH^2)” value is -5.844 kcal/mol; the “Molar enthalpy of solution, Methanol ΔsolH (methanol)” value was determined as 0.275 kcal/mol.

As to `CC(C)c1c(C(=O)Nc2ccccc2)c(-c2ccccc2)c(-c2ccc(F)cc2)n1CC[C@@H](O)C[C@@H](O)CC(=O)[O-].CC(C)c1c(C(=O)Nc2ccccc2)c(-c2ccccc2)c(-c2ccc(F)cc2)n1CC[C@@H](O)C[C@@H](O)CC(=O)[O-].CCCCO.[Ca+2]` [Solvate VIII], in data set [1], the “lipid lowering in triton treated rats (total cholesterol and TG), in words” value is listed as “performed better than pure ATC”; the “Total Cholesterol” value was 152 mg/dL; the Triglyceride turned out to be 140 mg/dL. Besides, the “Molar enthalpy … (pH8) ΔsolH” value in data set [2] (listed as Solvate- VIII) worked out at 1.17 kJ mol^-1. For the same compound, the “Molar enthalpy … (pH8) ΔsolH” value in data set [2] (listed as solvate-VIII) is listed as 2.475 kJ mol^-1. Further, in data set [3], the Desolvation temperature was 119. 5 °C; the “Enthalpy of desolvation, ΔdesolvH calculated from equation 4” value is 7.603 kcal/mol; the “Enthalpy of desolvation per mole of solvent (binding energy)” value was determined as 14.69 kcal/mol; the “Enthalpy … ΔdesolvH from DSC” value was 6.826 kcal/mol. For the same compound, in data set [4], the “Enthalpy of solvation ΔsolvH” value was -4.293 kcal/mol; the “Molar enthalpy of solution … (ΔsolH^2)” value was -1.1 kcal/mol; the “Molar enthalpy of solution, Methanol ΔsolH (methanol)” value turned out to be 0.136 kcal/mol.

With `CC(C)c1c(C(=O)Nc2ccccc2)c(-c2ccccc2)c(-c2ccc(F)cc2)n1CC[C@@H](O)C[C@@H](O)CC(=O)[O-].CC(C)c1c(C(=O)Nc2ccccc2)c(-c2ccccc2)c(-c2ccc(F)cc2)n1CC[C@@H](O)C[C@@H](O)CC(=O)[O-].CC(C)c1c(C(=O)Nc2ccccc2)c(-c2ccccc2)c(-c2ccc(F)cc2)n1CC[C@@H](O)C[C@@H](O)CC(=O)[O-].CC(C)c1c(C(=O)Nc2ccccc2)c(-c2ccccc2)c(-c2ccc(F)cc2)n1CC[C@@H](O)C[C@@H](O)CC(=O)[O-].CCO.O.O.[Ca+2].[Ca+2]` [Solvate VII], in data set [1], the “Total Cholesterol” value is 202 mg/dL and the Triglyceride is 167 mg/dL. The “Molar enthalpy … (pH8) ΔsolH” value in data set [2] came to 16.98 kJ mol^-1. In data set [3] (listed as Solvate-VII), this compound gave a Desolvation temperature of 105.13 °C. In data set [3] (listed as VII), the Desolvation temperature came to 105.1 °C. In data set [3], the “Enthalpy of desolvation, ΔdesolvH calculated from equation 4” value was 24.847 kcal/mol; the “Enthalpy of desolvation per mole of solvent (binding energy)” value came out at 25.48 kcal/mol; the “Enthalpy … ΔdesolvH from DSC” value is 25.01 kcal/mol. Also, in data set [4], the “Enthalpy of solvation ΔsolvH” value is -27.902 kcal/mol; the “Molar enthalpy of solution … (ΔsolH^2)” value was -1.02 kcal/mol; the “Molar enthalpy of solution, Methanol ΔsolH (methanol)” value was determined as 3.04 kcal/mol.

As for `CC(C)=O.CC(C)=O.CC(C)c1c(C(=O)Nc2ccccc2)c(-c2ccccc2)c(-c2ccc(F)cc2)n1CC[C@@H](O)C[C@@H](O)CC(=O)[O-].CC(C)c1c(C(=O)Nc2ccccc2)c(-c2ccccc2)c(-c2ccc(F)cc2)n1CC[C@@H](O)C[C@@H](O)CC(=O)[O-].CC(C)c1c(C(=O)Nc2ccccc2)c(-c2ccccc2)c(-c2ccc(F)cc2)n1CC[C@@H](O)C[C@@H](O)CC(=O)[O-].CC(C)c1c(C(=O)Nc2ccccc2)c(-c2ccccc2)c(-c2ccc(F)cc2)n1CC[C@@H](O)C[C@@H](O)CC(=O)[O-].CCO.[Ca+2].[Ca+2]` [Solvate VI], in data set [1], the “Total Cholesterol” value turned out to be 197 mg/dL and the Triglyceride amounted to 174 mg/dL. Besides, the “Molar enthalpy … (pH8) ΔsolH” value in data set [2] is 8.35 kJ mol^-1. Also, the Desolvation temperature in data set [3] (listed as Solvate-VI) turned out to be 72.53 °C. In data set [3] (listed as solvate-VI), this compound gave a Desolvation temperature of 72.5 °C. In data set [3], the “Enthalpy of desolvation, ΔdesolvH calculated from equation 4” value was 12.43 kcal/mol; the “Enthalpy of desolvation per mole of solvent (binding energy)” value was 15.69 kcal/mol; the “Enthalpy … ΔdesolvH from DSC” value amounted to 13.56 kcal/mol. In addition, in data set [4], the “Molar enthalpy of solution … (ΔsolH^2)” value was -2.581 kcal/mol and the “Molar enthalpy of solution, Methanol ΔsolH (methanol)” value stood at 1.22 kcal/mol.

Regarding `CC(C)c1c(C(=O)Nc2ccccc2)c(-c2ccccc2)c(-c2ccc(F)cc2)n1CC[C@@H](O)C[C@@H](O)CC(=O)[O-].CC(C)c1c(C(=O)Nc2ccccc2)c(-c2ccccc2)c(-c2ccc(F)cc2)n1CC[C@@H](O)C[C@@H](O)CC(=O)[O-].CO.[Ca+2]` [Solvate V], in data set [1], the “Total Cholesterol” value amounted to 198 mg/dL and the Triglyceride turned out to be 170 mg/dL. In data set [2], the “Molar enthalpy … (pH8) ΔsolH” value was 3.85 kJ mol^-1. For the same compound, in data set [3], the Desolvation temperature turned out to be 70.15 °C; the “Enthalpy of desolvation, ΔdesolvH calculated from equation 4” value was 6.381 kcal/mol; the “Enthalpy of desolvation per mole of solvent (binding energy)” value was 13.12 kcal/mol; the “Enthalpy … ΔdesolvH from DSC” value turned out to be 6.279 kcal/mol. Also, in data set [4], the “Molar enthalpy of solution … (ΔsolH^2)” value stood at 0.507 kcal/mol and the “Molar enthalpy of solution, Methanol ΔsolH (methanol)” value was found to be 0.507 kcal/mol.
